The values that follow come from patent US8791102B2, “Acetanilide sphingosine-1-phosphate receptor antagonists” (Exelixis, Inc., priority 2008, dated 2014).

By IC50 is commonly meant the concentration that inhibits the measured activity by half.

For this assay, the target named is T1, human S1P1 receptors (Homo sapiens, UniProt P21453).
T1 construct: host or cells: HEK293
The experiment in a line: S1P1R antagonist assay (fluorescent membrane potential dye, cAMP readout). It counts as cell-based. The settings on record: HEK293 cells expressing human S1P1 receptors and CNG channel; 500 nM NECA; S1P1R agonist 10 nM; 90 minutes; read-out: EC50 or IC50 value.

T1 sequence (P21453 whole entry): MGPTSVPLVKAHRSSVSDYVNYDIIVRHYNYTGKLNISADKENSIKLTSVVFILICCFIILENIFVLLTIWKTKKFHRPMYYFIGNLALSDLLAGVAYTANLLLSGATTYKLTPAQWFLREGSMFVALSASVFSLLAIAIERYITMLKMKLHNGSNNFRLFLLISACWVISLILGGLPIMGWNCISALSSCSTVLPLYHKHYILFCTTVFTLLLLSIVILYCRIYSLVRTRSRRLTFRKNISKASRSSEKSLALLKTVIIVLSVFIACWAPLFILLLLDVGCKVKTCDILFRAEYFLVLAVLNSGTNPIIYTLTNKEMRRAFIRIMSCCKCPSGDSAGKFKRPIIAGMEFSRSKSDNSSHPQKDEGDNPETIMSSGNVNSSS

As to `O=C(Nc1ccc(Oc2ccc(F)cc2)cc1)[C@@H]1C[C@@H](Cc2cccc(Cl)c2)CN1C(=O)Cn1nccn1` [Compound 268, (2S,4R)-1-(2-(2H-1,2,3-triazol-2-yl)acetyl)-4-(3-chlorobenzyl)-N-(4-(4-fluorophenoxy)phenyl)pyrrolidine-2-carboxamide], the IC50 was at most 300 nM. The figure for `O=C(Cc1ccccc1Cl)NC(COCc1ccccc1)C(=O)Nc1ccc(Oc2ccccc2)cc1` (centres unmarked) [Compound 391, N-(2-oxo-1-{[(phenylmethyl)oxy]methyl}-2-{[4-(phenyloxy)phenyl]amino}ethyl)-2-(2-chlorophenyl)acetamide] is above 1000 nM; for `O=C(Nc1ccc(Oc2ccc(F)cc2)cc1)[C@@H]1C[C@@H](c2ccccc2)CN1C(=O)Cc1cnc[nH]1` [Compound 251, (2S,4S)-1-(2-(1H-imidazol-5-yl)acetyl)-N-(4-(4-fluorophenoxy)phenyl)-4-phenylpyrrolidine-2-carboxamide] it is at most 300 nM; for `O=C(Cc1cccnc1)N[C@@H](COCc1ccccc1)C(=O)Nc1ccc(Oc2ccc(F)cc2)cc1` [Compound 247, (S)-3-(benzyloxy)-N-(4-(4-fluorophenoxy)phenyl)-2-(2-(pyridin-3-yl)acetamido)propanamide] it is at most 300 nM. The figure for `O=C(Nc1ccc(Oc2ccc(F)cc2)cc1)[C@@H]1C[C@@H](Cc2ccccc2)CN1C(=O)CN1C(=O)CSC1=S` [Compound 99, (2S,4R)-4-benzyl-N-(4-(4-fluorophenoxy)phenyl)-1-(2-(4-oxo-2-thioxothiazolidin-3-yl)acetyl)pyrrolidine-2-carboxamide] is at most 300 nM; for `Cc1cc(C(=O)NC(COCc2ccccc2)C(=O)Nc2ccc(Oc3ccccc3)cc2)ccc1Cl` (centres unmarked) [Compound 379, 4-chloro-3-methyl-N-(2-oxo-1-{[(phenylmethyl)oxy]methyl}-2-{[4-(phenyloxy)phenyl]amino}ethyl)benzamide] it is above 1000 nM. With `CC1CCN(CC(=O)N[C@@H](COCc2ccccc2)C(=O)Nc2ccc(Oc3ccc(F)cc3)cc2)CC1` [Compound 130, (S)-3-(benzyloxy)-N-(4-(4-fluorophenoxy)phenyl)-2-(2-(4-methylpiperidin-1-yl)acetamido)propanamide], the half-maximal inhibitory concentration (IC50) is above 1000 nM. The figure for `Cc1nc(CC(=O)N[C@@H](COCc2ccccc2)C(=O)Nc2ccc(Oc3ccc(F)cc3)cc2)c[nH]1` [Compound 162, (S)-3-(benzyloxy)-N-(4-(4-fluorophenoxy)phenyl)-2-(2-(2-methyl-1H-imidazol-4-yl)acetamido)propanamide] is at most 300 nM; for `CCN1CCN(CC(=O)N[C@@H](COCc2ccccc2)C(=O)Nc2ccc(Oc3ccc(F)cc3)cc2)CC1` [Compound 114, (S)-3-(benzyloxy)-2-(2-(4-ethylpiperazin-1-yl)acetamido)-N-(4-(4-fluorophenoxy)phenyl)propanamide] it is above 1000 nM; for `Cc1n[nH]c(C)c1CC(=O)N[C@@H](COCc1ccc(F)cc1)C(=O)Nc1ccc(Oc2ccc(F)cc2)cc1` [Compound 258, (S)-2-(2-(3,5-dimethyl-1H-pyrazol-4-yl)acetamido)-3-(4-fluorobenzyloxy)-N-(4-(4-fluorophenoxy)phenyl)propanamide] it is at most 300 nM. The figure for `O=C(Nc1ccc(Oc2ccc(F)cc2)cc1)[C@@H]1C[C@@H](Cc2ccccc2)CN1C(=O)CN1CCSCC1` [Compound 83, (2S,4R)-4-benzyl-N-(4-(4-fluorophenoxy)phenyl)-1-(2-thiomorpholinoacetyl)pyrrolidine-2-carboxamide] is at most 300 nM; for `O=C(Nc1ccc(Oc2ccc(F)cc2)cc1)[C@@H]1C[C@@H](Cc2ccccc2)CN1C(=O)CSc1ncccn1` [Compound 94, (2S,4R)-4-benzyl-N-(4-(4-fluorophenoxy)phenyl)-1-(2-(pyrimidin-2-ylthio)acetyl)pyrrolidine-2-carboxamide] it is at most 300 nM.

For `COc1ccc(N2CCN(CC(=O)N[C@@H](COCc3ccccc3)C(=O)Nc3ccc(Oc4ccc(F)cc4)cc3)CC2)cc1` [Compound 224, (S)-3-(benzyloxy)-N-(4-(4-fluorophenoxy)phenyl)-2-(2-(4-(4-methoxyphenyl)piperazin-1-yl)acetamido)propanamide], the IC50 lay in the range of 300 to 1000 nM. Take `O=C(Cn1cncn1)N[C@@H](COCc1ccccc1)C(=O)Nc1ccc(Oc2ccccc2)cc1` [Compound 146, (S)-2-(2-(1H-1,2,4-triazol-1-yl)acetamido)-3-(benzyloxy)-N-(4-phenoxyphenyl)propanamide]: the IC50 was at most 300 nM. The value for `O=C(Cc1c[nH]cn1)N[C@@H](COCc1ccccc1)C(=O)Nc1ccc(OCc2ccccc2)cc1` [Compound 211, (S)-2-(2-(1H-imidazol-4-yl)acetamido)-3-(benzyloxy)-N-(4-(benzyloxy)phenyl)propanamide] was at most 300 nM.

`O=C(CCc1cccs1)NC(COCc1ccccc1)C(=O)Nc1ccc(Oc2ccccc2)cc1` (centres unmarked) [Compound 403, N-(2-oxo-1-{[(phenylmethyl)oxy]methyl}-2-{[4-(phenyloxy)phenyl]amino}ethyl)-3-(thiophen-2-yl)propanamide]: the half-inhibitory concentration (IC50) lay in the range of 300 to 1000 nM. The figure for `O=C(Cc1c[nH]cn1)N[C@@H](COCc1ccccc1)C(=O)Nc1ccc(Oc2nccs2)cc1` [Compound 206, (S)-2-(2-(1H-imidazol-4-yl)acetamido)-3-(benzyloxy)-N-(4-(thiazol-2-yloxy)phenyl)propanamide] is 300 to 1000 nM; for `O=C(CN1CCOCC1)N[C@@H](COCc1ccccc1)C(=O)Nc1ccc(Oc2ccc(F)cc2)cc1` [Compound 155, (S)-3-(benzyloxy)-N-(4-(4-fluorophenoxy)phenyl)-2-(2-morpholinoacetamido)propanamide] it is at most 300 nM; for `O=C(NC(COCc1ccccc1)C(=O)Nc1ccc(Oc2ccccc2)cc1)C1CC(=O)N(Cc2ccc(Cl)cc2)C1` (centres unmarked) [Compound 29, N-(3-(benzyloxy)-1-oxo-1-(4-phenoxyphenylamino)propan-2-yl)-1-(4-chlorobenzyl)-5-oxopyrrolidine-3-carboxamide] it is above 1000 nM. The figure for `O=C(Nc1ccc(Oc2ccc(F)cc2)cc1)[C@@H]1C[C@@H](Cc2ccc(Cl)cc2)CN1C(=O)Cn1nccn1` [Compound 227, (2S,4R)-1-(2-(2H-1,2,3-triazol-2-yl)acetyl)-4-(4-chlorobenzyl)-N-(4-(4-fluorophenoxy)phenyl)pyrrolidine-2-carboxamide] is at most 300 nM. On to `CS(=O)(=O)c1ccc(C(=O)NC(COCc2ccccc2)C(=O)Nc2ccc(Oc3ccccc3)cc2)c(Cl)c1` (centres unmarked) [Compound 334, 2-chloro-4-(methylsulfonyl)-N-(2-oxo-1-{[(phenylmethyl)oxy]methyl}-2-{[4-(phenyloxy)phenyl]amino}ethyl)benzamide], for which the IC50 is above 1000 nM. Consider `COc1ccc2[nH]c(C)c(CC(=O)NC(COCc3ccccc3)C(=O)Nc3ccc(Oc4ccccc4)cc3)c2c1` (centres unmarked) [Compound 352, N-(2-oxo-1-{[(phenylmethyl)oxy]methyl}-2-{[4-(phenyloxy)phenyl]amino}ethyl)-2-(5-methoxy-2-methyl-1H-indol-3-yl)acetamide], for which the half-inhibitory concentration (IC50) is above 1000 nM.

For `O=C(Nc1ccc(Oc2ccc(F)cc2)cc1)[C@@H]1C[C@@H](Cc2c(F)cc(F)cc2F)CN1C(=O)Cn1ccnn1` [Compound 170, (2S,4R)-1-(2-(1H-1,2,3-triazol-1-yl)acetyl)-N-(4-(4-fluorophenoxy)phenyl)-4-(2,4,6-trifluorobenzyl)pyrrolidine-2-carboxamide], the concentration for half-maximal inhibition (IC50) was at most 300 nM. Consider `O=C(NC(COCc1ccccc1)C(=O)Nc1ccc(Oc2ccccc2)cc1)c1ccc2[nH]ccc2c1` (centres unmarked) [Compound 20, N-(3-(benzyloxy)-1-oxo-1-(4-phenoxyphenylamino)propan-2-yl)-1H-indole-5-carboxamide], for which the IC50 was above 1000 nM. Take `COc1ccc(C2(C(=O)NC(COCc3ccccc3)C(=O)Nc3ccc(Oc4ccccc4)cc3)CC2)cc1` (centres unmarked) [Compound 360, N-(2-oxo-1-{[(phenylmethyl)oxy]methyl}-2-{[4-(phenyloxy)phenyl]amino}ethyl)-1-(4-methoxyphenyl)cyclopropanecarboxamide]: the 50% inhibitory concentration (IC50) was above 1000 nM.

Take `O=C(Cc1cccc(Cl)c1F)NC(COCc1ccccc1)C(=O)Nc1ccc(Oc2ccccc2)cc1` (centres unmarked) [Compound 191, 3-(benzyloxy)-2-(2-(3-chloro-2-fluorophenyl)acetamido)-N-(4-phenoxyphenyl)propanamide]: the IC50 lay within 300 to 1000 nM.

Take `O=C(COc1ccc(F)cc1)NC(COCc1ccccc1)C(=O)Nc1ccc(Oc2ccccc2)cc1` (centres unmarked) [Compound 368, N-(2-oxo-1-{[(phenylmethyl)oxy]methyl}-2-{[4-(phenyloxy)phenyl]amino}ethyl)-2-(4-fluorophenoxy)acetamide]: the IC50 was above 1000 nM. As to `CC1CCCN(CC(=O)N[C@@H](COCc2ccccc2)C(=O)Nc2ccc(Oc3ccc(F)cc3)cc2)C1` (stereo partly drawn) [Compound 46, (2S)-3-(benzyloxy)-N-(4-(4-fluorophenoxy)phenyl)-2-(2-(3-methylpiperidin-1-yl)acetamido)propanamide], the half-inhibitory concentration (IC50) was above 1000 nM.

On to `O=C(Nc1ccc(Oc2ccc(F)cc2)cc1)[C@@H]1C[C@@H](Cc2ccccc2)CN1C(=O)Cc1c(Cl)cccc1Cl` [Compound 119, (2S,4R)-4-benzyl-1-(2-(2,6-dichlorophenyl)acetyl)-N-(4-(4-fluorophenoxy)phenyl)pyrrolidine-2-carboxamide], for which the IC50 was at most 300 nM. Regarding `O=C(CN1CCN(c2ccc(F)cc2)CC1)N[C@@H](COCc1ccccc1)C(=O)Nc1ccc(Oc2ccc(F)cc2)cc1` [Compound 218, (S)-3-(benzyloxy)-N-(4-(4-fluorophenoxy)phenyl)-2-(2-(4-(4-fluorophenyl)piperazin-1-yl)acetamido)propanamide], the concentration for half-maximal inhibition (IC50) lay in the range of 300 to 1000 nM. The value for `O=C(Nc1ccc(Oc2ccccc2)cc1)C(COCc1ccccc1)NC(=O)[C@H](O)c1ccccc1Cl` (stereo partly drawn) [Compound 24, 3-(benzyloxy)-2-((R)-2-(2-chlorophenyl)-2-hydroxyacetamido)-N-(4-phenoxyphenyl)propanamide] was above 1000 nM; that for `O=C(CN1CCSCC1)N[C@@H](COCc1ccccc1)C(=O)Nc1ccc(Oc2ccc(F)cc2)cc1` [Compound 266, (S)-3-(benzyloxy)-N-(4-(4-fluorophenoxy)phenyl)-2-(2-thiomorpholinoacetamido)propanamide] was 300 to 1000 nM.
